The text below walks through data of paper PMC11769294, “(E)-1-(3-(3-Hydroxy-4-Methoxyphenyl)-1-(3,4,5-Trimethoxyphenyl)allyl)-1H-1,2,4-Triazole and Related Compounds: Their Synthesis and Biological Evaluation as Novel Antimitotic Agents Targeting Breast Cancer” (Pharmaceuticals, 2025).

A short description of data set [1]: Cytotoxicity in MCF-10A cells (alamarBlue). Particulars: human, MCF-10A non-tumorigenic mammary epithelial cells. It counts as cell-based, human. How it is done: Figure 9 Effect of compounds 22a (A) and 22b (B) on the cell viability of non-tumorigenic MCF-10A human mammary epithelial cells at 24, 48, and 72 h. Cells were treated with the compounds 22a and 22b at concentrations of 10 μM, 1 μM, 0.5 μM, and 0.4 μM for 24, 48, or 72 h. […] Cell viability was expressed as a percentage of vehicle control (ethanol 1% (v/v)) and was determined by an alamarBlue assay (average ± SEM of three independent experiments). Two-way ANOVA (Bonferroni post-test) was used to test for statistical significance (*, p < 0.05; **, p < 0.01; ***, p < 0.001).
HL-60 cells were suspension cells and the seeding density for the viability assay was 25,000 cells/mL. MCF-7 cells (adherent) were cultured in Minimum Essential Media (MEM) with GlutaMAX™-I, supplemented with 1% (v/v) non-essential amino acids, 10% (v/v) fetal bovine serum (FBS), purchased from BD Biosciences (Edmund Halley Road, Oxford, UK), and 1% (v/v) penicillin/streptomycin 5000 U/mL. The MCF-7 cells used in the screening of the compounds during these experiments were mycoplasma-free. The seeding density of MCF-7 in the viability assay was 25,000 cells/mL and 50,000 cells/mL in the FACS assay. Normal breast cells (MCF-10A) (adherent) were cultured in Dulbecco’s Modified Eagle Medium: Nutrient Mixture F-12 (DMEM/F12; Gibco) supplemented with 5% horse serum (Invitrogen, Waltham, MA, USA), 20 ng/mL epidermal growth factor (Merck Millipore, Burlington, MA, USA), 0.5 μg/mL hydrocortisone (Sigma, Kanagawa, Japan), 100 ng/mL cholera toxin (Sigma), 10 μg/mL insulin (Sigma), and penicillin/streptomycin 5000 U/mL (1%) (Gibco, Waltham, MA, USA). […] MDA-MB-231 cells were cultured in Dulbecco’s Modified Eagle Medium, which was supplemented with 10% (v/v) fetal bovine serum (FBS) and 1% (v/v) penicillin/streptomycin 5000 U/mL. When not in use, all cells were kept in liquid nitrogen and frozen in a freezing media made of 90% FBS and 10% DMSO. All cells were grown in an atmosphere of 5% CO2/95% air in T75 culture flasks. The media was changed every 2–3 days and media was always prewarmed to 37 °C. All were sub-cultured every 3–4 days by trypsinization using TrypLE™ Express enzyme when confluence was reached to allow growth, prevent excessive cell death, and minimize the risk of infections derived by over-confluence. For the cell viability assay, the number of cells per milliliter was 25,000 cells/mL while the FACS assay utilized 50,000 cells/mL. Cells were maintained at 37 °C in 5% CO2 in a humidified incubator.
The biochemical assays were performed in triplicate and on at least three independent occasions to facilitate the determination of mean values. For the viability assay, cells were grown until 80% confluent. Adherent cells such as MCF-7, MDA-MB-231, and MCF-10A were trypsinized to detach them from the flask, counted as previously described, and seeded in 96 well plates with a seeding density of 25,000 cells /mL (200 µL of suspension in each well so that the final number of cells per well was 5000) and 1 × 10^4 cells/well seeding density for suspension HL-60 cells. Adherent cells were incubated for 24 h after being seeded in the 96 well plate and treated on the following day, while suspension cells were treated on the same day of the seeding. In both cases, the incubation time after the treatment with the drug was 72 h. After 68 h incubation, the AlamarBlue was added (20 µL in each well) and the incubation time was completed. After 72 h, the change in color was measured by spectrofluorimetry at an excitation wavelength of 544 nm and emission wavelength of 590 nm. AlamarBlue is a cell viability indicator containing a compound called resazurin. AlamarBlue is water soluble, stable in culture media, non-toxic, and is permeable through the cell membrane. When resazurin (blue) enters the live cells, it is reduced to the fluorescent molecule resorufin (pink).
On the technique in general: Alamar Blue is a resazurin reagent that responds to reducing activity.

The test system of the next data set is MCF-7 cells. Description: Cell cycle analysis (PI, flow cytometry). Particulars: 1 μM. It counts as cell-based, human. As for the experimental part: Figure 10 Compound (A) 22b, (B) phenstatin 19c induced apoptosis in a time-dependent manner in MCF-7 cells. Cells were treated with either vehicle control [0.1% ethanol (v/v)] or compound 22b or phenstatin 19c (1 μM) for 24, 48, and 72 h). The data shown for the control vehicle and phenstatin are as we previously reported. Cells were fixed and stained with PI, followed by analysis using flow cytometry. Cell cycle analysis was performed on histograms of gated counts per DNA area (FL2-A). The number of cells with <2 N (sub-G1), 2 N (G0G1), and 4 N (G2/M) DNA content was determined with CellQuest software, BD CellQuest Pro. Values are represented as the mean ± SEM for three separate experiments. Two-way ANOVA (Bonferroni post-test) was used to test for statistical significance (*, p < 0.05; **, p < 0.01; ***, p < 0.001).
Cells (MCF-7 and MDA-MD 231) were seeded at a density of 1 × 10^5 cells/well in 6-well plates (volume of 3 mL per well) and treated with selected compound 22b and phenstatin (19c) (1 μM), as previously reported. The time points used were 24, 48, or 72 h. Ethanol was used as the vehicle. At each time point, the media was removed and then the well was carefully rinsed with PBS and TrypLE™ Express enzyme (200 µL) was added to detach the adherent cells. The cells were collected by trypsinization and were then centrifuged at 800× g for 15 min. Cells were washed with ice-cold phosphate-buffered saline (PBS) ×2 and fixed in ice-cold 70% ethanol for 14 h at −20 °C. Fixed cells were centrifuged at 800× g for 15 min. The samples were then treated with 12.5 µL of DNase-free RNAse A (10 mg/mL) together with […] of PI (1 mg/mL) at 37 °C for 30 min, vortexed, and wrapped in tin foil. The DNA content of cells (10,000 cells/selected experimental group) was determined by flow cytometry at 488 nm with a FACSCalibur flow cytometer (BD Biosciences, San Jose, CA, USA) using the CellQuest Software (Becton-Dickinson, East Rutherford, NJ, USA). Each experiment was performed on three separate occasions.
On the technique in general: In flow cytometry, cells or beads pass a laser one at a time.

Setting [2] is: 1 μM, 24 h, read-out: cell viability.

In turn, `COc1ccc(/C=C/C(c2cc(OC)c(OC)c(OC)c2)n2cncn2)cc1` (stereo not drawn) [Compound 22a, (E)-1-(3-(4-Methoxyphenyl)-1-(3,4,5-trimethoxyphenyl)allyl)-1H-1,2,4-triazole] showed a viability at 72 h, 0.4 µM in data set [1] (72 h) of more than 80%. In addition, the viability at 24 h, 1 µM in data set [1] (setting [2]) came to 100%. Further, in data set [1] (1 μM, read-out: viable cells), the viability at 48 h, 1 µM was more than 80%. The viability at 24 h, 10 µM in data set [1] (10 μM, 24 h, read-out: viable cells) worked out at 78%. Besides, in data set [1] (10 μM, read-out: viable cells), the viability at 48 h, 10 µM is approximately 57%.

Regarding `COc1ccc(/C=C/C(c2cc(OC)c(OC)c(OC)c2)n2cncn2)cc1O` (stereo not drawn) [Compound 22b, (E)-5-(3-(1H-1,2,4-Triazol-1-yl)-3-(3,4,5-trimethoxyphenyl)prop-1-en-1-yl)-2-methoxyphenol], the “cells in G2/M phase” value stood at 35% in the data set with MCF-7 cells (24 h), 26% with MCF-7 cells (48 h) and 23% in the data set on MCF-7 cells (72 h). Besides, the “cells in apoptosis (sub-G1)” value in the data set with MCF-7 cells (24 h) was found to be 14%; in the data set on MCF-7 cells (48 h), 23%; in the data set with MCF-7 cells (72 h) it was 31%. In data set [1] (72 h), this molecule had a viability at 72 h, 0.4 µM of more than 80%. In addition, in data set [1] (0.5 μM, 72 h, read-out: cell viability), the viability at 72 h, 0.5 µM came out at 80%. Further, in data set [1] (setting [2]), the viability at 24 h, 1 µM is 100%. In data set [1] (1 μM, read-out: viable cells), the viability at 48 h, 1 µM is more than 80%. Besides, in data set [1] (1 μM, 72 h, read-out: cell viability), the viability at 72 h, 1 µM worked out at 55%. The viability at 48 h, 10 µM in data set [1] (10 μM, read-out: viable cells) was approximately 30%. Moreover, the viability at 72 h, 10 µM in data set [1] (10 μM, 72 h, read-out: cell viability) amounted to 24%.
